Several values for one entry are separate records, joined by “and”; a condition that tells them apart may be missing. Equal entries are not always repeated. Activity calls are given as the source filed them.
Key:
[1] = target: Glycogen synthase kinase-3 alpha (Homo sapiens, UniProt P49840); test: Inhibition of Human GSK-3 alpha Activity Measured in Biochemical System Using Microfluidics - 2063-06_Inhibitor_Dose_DryPowder_Activity_Set2. [Related pubchem assays (depositor defined):AID2709]
[2] = target: Glycogen synthase kinase-3 beta (Homo sapiens, UniProt P49841); test: Inhibition of Human GSK-3 beta Activity Measured in Biochemical System Using Microfluidics - 2063-05_Inhibitor_Dose_DryPowder_Activity_Set2. [Related pubchem assays (depositor defined):AID2709]
Sequence of Glycogen synthase kinase-3 beta (P49841 whole entry): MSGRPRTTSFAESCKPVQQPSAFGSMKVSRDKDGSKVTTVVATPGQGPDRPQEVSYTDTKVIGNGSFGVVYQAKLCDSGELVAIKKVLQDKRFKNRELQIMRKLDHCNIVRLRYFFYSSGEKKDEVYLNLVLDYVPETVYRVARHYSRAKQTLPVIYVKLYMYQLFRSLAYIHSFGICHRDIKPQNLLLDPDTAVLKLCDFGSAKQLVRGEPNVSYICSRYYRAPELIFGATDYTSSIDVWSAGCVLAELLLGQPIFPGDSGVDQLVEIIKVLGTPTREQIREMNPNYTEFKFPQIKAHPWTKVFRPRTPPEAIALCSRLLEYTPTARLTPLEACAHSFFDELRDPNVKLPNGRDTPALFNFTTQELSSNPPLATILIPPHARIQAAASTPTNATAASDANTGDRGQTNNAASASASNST

[3] = target: Cyclin-dependent kinase 5/CDK5 activator 1 (Homo sapiens, UniProt Q00535); test: CDK5-p25 kinase inhibitors, specificity check, dose response, selectivity assay for GSK-3 alpha inhibitor project, biochemical, microfluidic mobility shift, dry powder (AID 588430)
Sequence of Cyclin-dependent kinase 5/CDK5 activator 1 (Q00535 whole entry): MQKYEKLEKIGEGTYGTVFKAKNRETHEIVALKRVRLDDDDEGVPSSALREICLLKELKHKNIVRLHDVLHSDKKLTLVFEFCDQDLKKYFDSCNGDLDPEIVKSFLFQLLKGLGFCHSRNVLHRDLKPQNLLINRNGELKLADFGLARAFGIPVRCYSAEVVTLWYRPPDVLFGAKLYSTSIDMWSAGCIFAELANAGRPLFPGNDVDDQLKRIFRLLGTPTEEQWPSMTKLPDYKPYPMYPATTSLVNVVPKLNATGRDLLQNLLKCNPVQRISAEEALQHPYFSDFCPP
Sequence of Cyclin-dependent kinase 5/CDK5 activator 1 (Q15078 whole entry, further chain): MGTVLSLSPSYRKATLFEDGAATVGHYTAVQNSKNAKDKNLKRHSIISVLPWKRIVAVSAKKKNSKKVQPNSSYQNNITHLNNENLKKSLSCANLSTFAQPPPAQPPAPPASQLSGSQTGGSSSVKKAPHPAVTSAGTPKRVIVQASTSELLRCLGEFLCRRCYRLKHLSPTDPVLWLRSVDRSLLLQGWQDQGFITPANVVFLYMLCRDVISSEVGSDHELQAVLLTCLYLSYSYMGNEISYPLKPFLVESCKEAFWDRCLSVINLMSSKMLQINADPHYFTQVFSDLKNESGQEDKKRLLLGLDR

[4] = target: T1, Short transient receptor potential channel 4 (Mus musculus, UniProt Q9QUQ5); test: SAR Analysis for the identification of selective inhibits of the transient receptor potential cation channel C4 (TRPC4): Automated Electrophysiology_2. [Related pubchem assays (depositor defined):AID2256]; assay type: functional
T1 sequence (Q9QUQ5 whole entry): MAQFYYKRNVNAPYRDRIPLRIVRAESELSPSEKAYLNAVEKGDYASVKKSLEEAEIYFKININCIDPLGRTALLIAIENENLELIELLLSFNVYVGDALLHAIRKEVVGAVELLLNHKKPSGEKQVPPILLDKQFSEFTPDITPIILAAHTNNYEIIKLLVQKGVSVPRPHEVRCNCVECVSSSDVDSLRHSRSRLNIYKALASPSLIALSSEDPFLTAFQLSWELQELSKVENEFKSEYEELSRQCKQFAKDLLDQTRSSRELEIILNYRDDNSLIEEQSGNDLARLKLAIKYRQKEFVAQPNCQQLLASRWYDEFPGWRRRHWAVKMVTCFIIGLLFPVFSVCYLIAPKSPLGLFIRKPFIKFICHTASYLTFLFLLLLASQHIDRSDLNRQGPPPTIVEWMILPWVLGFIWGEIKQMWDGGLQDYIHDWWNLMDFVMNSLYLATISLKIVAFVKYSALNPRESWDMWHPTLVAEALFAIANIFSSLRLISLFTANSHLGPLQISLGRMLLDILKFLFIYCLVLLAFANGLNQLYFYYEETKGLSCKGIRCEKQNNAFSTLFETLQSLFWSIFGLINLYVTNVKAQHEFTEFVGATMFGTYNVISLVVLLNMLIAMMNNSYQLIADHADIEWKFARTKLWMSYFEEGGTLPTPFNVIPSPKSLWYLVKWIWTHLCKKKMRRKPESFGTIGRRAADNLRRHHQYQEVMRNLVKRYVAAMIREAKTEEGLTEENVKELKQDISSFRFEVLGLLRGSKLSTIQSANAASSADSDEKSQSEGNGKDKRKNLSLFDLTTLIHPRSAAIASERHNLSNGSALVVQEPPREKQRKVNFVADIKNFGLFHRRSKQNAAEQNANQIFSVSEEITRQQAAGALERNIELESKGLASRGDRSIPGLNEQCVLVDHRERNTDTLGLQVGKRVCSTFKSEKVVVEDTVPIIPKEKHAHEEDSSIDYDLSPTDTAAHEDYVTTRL

[5] = target: Short transient receptor potential channel 6 (Mus musculus, UniProt Q61143); test: TRPC6 inhibition potency of TRPC4 inhibitor analogs, dose response, selectivity assay for selective TRPC4 inhibitor project, HEK293 cells, membrane potential dye, IC50 (AID 492987); assay type: functional, cell-based
Sequence of Short transient receptor potential channel 6 (Q61143 whole entry): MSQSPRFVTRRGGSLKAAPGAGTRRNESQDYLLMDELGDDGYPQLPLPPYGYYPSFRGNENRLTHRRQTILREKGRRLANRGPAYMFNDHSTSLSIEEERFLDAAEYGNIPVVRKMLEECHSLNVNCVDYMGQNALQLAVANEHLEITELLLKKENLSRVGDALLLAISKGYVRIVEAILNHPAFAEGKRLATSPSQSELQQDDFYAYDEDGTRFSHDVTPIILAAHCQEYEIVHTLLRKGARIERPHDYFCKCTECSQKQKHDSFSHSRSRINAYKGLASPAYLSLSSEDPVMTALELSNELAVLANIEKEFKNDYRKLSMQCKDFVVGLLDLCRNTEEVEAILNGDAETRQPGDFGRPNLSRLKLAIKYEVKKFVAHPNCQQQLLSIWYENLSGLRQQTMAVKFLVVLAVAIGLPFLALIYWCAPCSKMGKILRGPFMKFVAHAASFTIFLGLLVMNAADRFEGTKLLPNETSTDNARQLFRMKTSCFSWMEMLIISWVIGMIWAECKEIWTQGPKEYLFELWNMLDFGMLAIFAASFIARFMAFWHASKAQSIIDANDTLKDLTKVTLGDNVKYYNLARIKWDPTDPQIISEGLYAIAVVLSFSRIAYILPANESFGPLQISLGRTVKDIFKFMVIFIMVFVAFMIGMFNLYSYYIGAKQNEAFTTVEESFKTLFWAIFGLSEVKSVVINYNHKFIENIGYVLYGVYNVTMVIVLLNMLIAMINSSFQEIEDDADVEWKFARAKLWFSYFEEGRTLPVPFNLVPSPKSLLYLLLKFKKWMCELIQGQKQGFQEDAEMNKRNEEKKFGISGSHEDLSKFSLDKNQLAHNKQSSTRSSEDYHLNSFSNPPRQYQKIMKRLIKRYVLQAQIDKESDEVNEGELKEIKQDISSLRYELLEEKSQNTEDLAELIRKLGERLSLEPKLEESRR

[6] = target: T1, Short transient receptor potential channel 4; test: SAR Analysis for the identification of selective inhibitors of the transient receptor potential cation channel C4 (TRPC4): TRPC4 Serotonin Receptor CRC MPD assay. [Related pubchem assays (depositor defined):AID2247, AID2256]; assay type: functional
[7] = target: T1, Short transient receptor potential channel 4; test: TRPC4 inhibitor concentration-response, dose response, cell-based, HEK293 TRPC4/mu-opioid, DAMGO stimulus, Fluo-4 (AID 492994); assay type: functional
[8] = target: T1, Short transient receptor potential channel 4; test: TRPC4 inhibition under acetylcholine activation, SAR follow-up, cell-based, acetylcholine stimulus, HEK293 TRPC4, Fluo-4 (AID 492996); assay type: functional
[9] = target: Botulinum neurotoxin type A (Clostridium botulinum (strain Hall / ATCC 3502 / NCTC 13319 / Type A), UniProt P0DPI1); test: High-throughput multiplex microsphere dose response for inhibitors of toxin protease, specifically Botulinum neurotoxin light chain A protease, compounds from Cherry Pick 01.; assay type: functional; conditions: read-out: EC50_MICROM
Sequence of Botulinum neurotoxin type A (P0DPI1 2-448 limits assumed): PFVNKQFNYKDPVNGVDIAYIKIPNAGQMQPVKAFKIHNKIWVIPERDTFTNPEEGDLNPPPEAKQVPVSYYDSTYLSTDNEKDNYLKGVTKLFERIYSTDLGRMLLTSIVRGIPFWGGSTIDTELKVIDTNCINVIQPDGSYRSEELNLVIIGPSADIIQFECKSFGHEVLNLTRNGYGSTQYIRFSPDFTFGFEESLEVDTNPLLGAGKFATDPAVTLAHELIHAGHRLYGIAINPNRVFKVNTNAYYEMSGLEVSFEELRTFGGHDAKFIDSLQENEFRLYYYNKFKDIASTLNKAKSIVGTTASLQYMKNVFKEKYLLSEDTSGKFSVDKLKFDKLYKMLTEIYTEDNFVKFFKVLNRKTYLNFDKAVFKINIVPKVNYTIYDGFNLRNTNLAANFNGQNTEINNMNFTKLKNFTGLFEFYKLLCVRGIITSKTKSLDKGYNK

[10] = target: T2, Heat shock factor protein 1 (Mus musculus, UniProt P38532); test: HSF1 potentiators in luciferase reporter cells, confirmation, cell-based, NIH3T3, luminescence, dose retest (AID 435004); assay type: functional;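 note: stress induced by proteasome inhibitor MG132 added 30 min after compound; luciferase reporter driven by HSF1 response element in NIH3T3 cells; actives raise luminescence as potentiators of the MG132 stress response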
T2 sequence (P38532 whole entry): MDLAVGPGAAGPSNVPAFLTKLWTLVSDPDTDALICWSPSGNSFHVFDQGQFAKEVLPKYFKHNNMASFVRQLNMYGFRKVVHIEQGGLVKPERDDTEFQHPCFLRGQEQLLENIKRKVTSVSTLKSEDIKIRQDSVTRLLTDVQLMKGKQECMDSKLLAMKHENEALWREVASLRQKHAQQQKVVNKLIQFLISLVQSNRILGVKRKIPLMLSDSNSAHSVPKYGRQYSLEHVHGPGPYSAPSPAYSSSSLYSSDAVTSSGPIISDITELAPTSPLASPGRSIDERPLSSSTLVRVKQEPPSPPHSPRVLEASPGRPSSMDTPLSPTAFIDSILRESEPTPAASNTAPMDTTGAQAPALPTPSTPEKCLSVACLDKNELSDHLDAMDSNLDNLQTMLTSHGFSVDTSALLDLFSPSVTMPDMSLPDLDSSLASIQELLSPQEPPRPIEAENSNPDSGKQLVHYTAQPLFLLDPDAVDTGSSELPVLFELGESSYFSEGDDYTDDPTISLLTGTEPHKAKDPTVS

Sequence of Glycogen synthase kinase-3 alpha (P49840 whole entry): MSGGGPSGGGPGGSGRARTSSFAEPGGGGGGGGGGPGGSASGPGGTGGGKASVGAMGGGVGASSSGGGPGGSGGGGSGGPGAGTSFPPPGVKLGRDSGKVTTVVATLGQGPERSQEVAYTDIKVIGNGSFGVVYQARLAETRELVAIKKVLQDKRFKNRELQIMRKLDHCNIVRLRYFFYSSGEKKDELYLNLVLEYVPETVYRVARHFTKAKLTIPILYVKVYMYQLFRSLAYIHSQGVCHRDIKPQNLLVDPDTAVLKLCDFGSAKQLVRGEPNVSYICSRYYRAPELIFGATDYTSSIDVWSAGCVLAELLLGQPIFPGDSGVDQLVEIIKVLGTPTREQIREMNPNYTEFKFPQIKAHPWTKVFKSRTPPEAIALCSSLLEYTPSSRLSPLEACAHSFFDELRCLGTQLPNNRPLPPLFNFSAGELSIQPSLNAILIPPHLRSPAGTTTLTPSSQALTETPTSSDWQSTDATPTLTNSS

CCCN(CCC)Cc1c(C(=O)N/N=C/c2ccoc2)nnn1-c1nonc1N
active: AC50 [1] 1.24 µM | AC50 [2] 0.457 µM | AC50 [3] 40.6 µM

Cc1cc(N2CCCC2)nc2ccc(F)cc12
active: IC50 [4] 3.94 µM | IC50 [5] 7.76 µM | IC50 [6] 1.41 µM | IC50 [7] 0.93 µM | IC50 [8] 17.4 µM

COc1ccc(C2CC(c3cccs3)=NN2c2nc(C)c(C(C)=O)s2)cc1OC (stereo not given)
active: EC50 [9] 7.9 µM and 4.8 µM | EC50 [10] 111 µM
